Two molecules from patent US6433009B1, “Sulfonyl urea derivatives and their use in the control of interleukin-1 activity” (Pfizer Inc, priority 1997, dated 2002) can be followed below.

Molecule `CC(=O)c1cccc(S(=O)(=O)NC(=O)Nc2c(C(C)C)cccc2C(C)C)c1` [Example 56, 1-(3-Acetyl-benzenesulfonyl)-3-(2,6-diisopropyl-phenyl)-urea] returned a melting point of 151.6 to 153.5 °C.

As for `O=C(Nc1c2c(cc3c1CCC3)CCC2)NS(=O)(=O)c1ccc2[nH]cnc2c1` [Example 127, 1-(1H-Benzoimidazole-5-sulfonyl)-3-(1,2,3,5,6,7-hexahydro-s-indacen-4-yl)-urea], the melting point was 239 °C (dec.).

Broadly, the melting point is the temperature of the solid-liquid transition.
